Literature values, collected in US11324772B2, “Periodontal gel composition and method of use” (PRUDENTIX LTD., priority 2017, dated 2022).

## CCCCCCCCN=c1ccn(CCCCCCCCCCn2ccc(=NCCCCCCCC)cc2)cc1 [octenidine, 1,1′,4,4′-tetrahydro-N,N′-dioctyl-1,1′-decametylenedi-(4-pyridylideneamine)]
pH
  pH range in which octenidine is stable and maintains its antimicrobial activity: 1.6-12.2
steam, aqueous solutions
  temperature up to which it can be sterilized by steam in aqueous solutions: up to 130 °C
